Key:
Brassica kaber = assay: Experiment 3: glasshouse, post-emergence, fresh weight after 19 days, % inhibition of growth; format: in vivo; settings: Mutarda arvensis, post-emergence; for inhibition at 125 g/ha: Atrazine 125 g/ha alone
Method: (§1) A series of experiments was carried out to determine the nature of the biological interaction between atrazine and five compounds of general formula I on a range of weed species. […] The growth stages of the plants at spraying are also presented with the results. Agricultural surfactant (nonyl phenol ethylene oxide condensate containing 9 moles ethylene oxide marketed as 'Agral') was added to all spray dilutions to give 0.2% v/v concentration. […] After 19 days the fresh weight of vegetation in each pot was determined. […] E = […]00003:character} where E, X and Y are percentage inhibition of growth. In addition, the ED50 or ED90 values (the application rates giving 50% or 90% inhibition of growth, respectively) were calculated from the results for the piperidinedione alone and with increasing rates of atrazine.

Digitaria sanguinalis = assay: as above; format: in vivo; settings: 3 leaves
Method: as §1

Eleusine indica = assay: as above; format: in vivo; settings: 3 leaves
Method: as §1

Sesbania exactata = assay: as above; format: in vivo; settings: 2 leaves
Method: as §1

Solanum nigrum = assay: as above; format: in vivo; settings: for ED₉₀: Atrazine alone; for inhibition at 8 g/ha / inhibition at 16 g/ha / inhibition at 31 g/ha / inhibition at 63 g/ha / inhibition at 125 g/ha: Solanum nigrum, post-emergence; for inhibition at 8 g/ha: Atrazine 8 g/ha alone; for inhibition at 16 g/ha: Atrazine 16 g/ha alone; for inhibition at 31 g/ha: Atrazine 31 g/ha alone; for inhibition at 63 g/ha: Atrazine 63 g/ha alone; for inhibition at 125 g/ha: Atrazine 125 g/ha alone
Method: as §1

Xanthium strumarium = assay: as above; format: in vivo; settings: 2 leaves
Method: as §1

maize var.Irla = assay: Experiment 5: glasshouse, crop plants at 3 leaf stage, percentage phytotoxicity after 12 days; settings: for % crop phytotoxicity Maize (3 leaves): Compound 74 0 g/ha
Method: An experiment was carried out to determine the biological interaction between atrazine and Compound 74 on maize. A wide range of dose rates of atrazine i.e. 250, 500, 1000 and 2000 g/ha (in a commercial suspension concentrate formulation containing 500g/l w/v atrazine) and of Compound 74 i.e. 31, 63, 125, 250, 1000 and 2000 g/ha (in a composition according to Example 2 as described hereinafter) were applied in a spray volume of 290litres/ha to four replicate 10cm square plastic plant pots of loam soil containing one maize plant, at the 3 leaf growth stage. Agricultural surfactant ('Agral') was added to the spray dilutions to give 0.2%v/v concentration.
After spraying the pots were arranged in randomised blocks in a glasshouse and watered as necessary. After 12 days the plants were assessed for percentage phytotoxicity (reduction in green area compared with unsprayed plants) (0 = no effect 100 = complete destruction).
E = X + Y […] where E, X and Y are percentage phytotoxicity.
The ED values were then used to plot an isobole according to the method of P.M.L. Tammes op cit. The results of percentage phytotoxicity, the ED₂₀ values calculated from them and the calculated expected value are given in Table 9.

## CCNc1nc(Cl)nc(NC(C)C)n1 [Atrazine, 2-chloro-4-ethylamino-6-isopropylamino-1,3,5-triazine]
Brassica kaber; Atrazine 63 g/ha alone, 2 leaves, Table 7
  inhibition at 63 g/ha: 27%
Brassica kaber; 2-3 leaves, Table 4
  inhibition at 125 g/ha: 57%
Brassica kaber; 2 leaves, Table 5
  inhibition at 125 g/ha: 100%
Brassica kaber; 2 leaves, Table 6
  inhibition at 125 g/ha: 100%
Brassica kaber; 2 leaves, Table 7
  inhibition at 125 g/ha: 75%
Digitaria sanguinalis; Atrazine alone
  ED₉₀: ED₉₀ (g/ha) ∞
Digitaria sanguinalis; Digitaria sanguinalis, post-emergence, Atrazine 125 g/ha alone
  inhibition at 125 g/ha: 25%
Digitaria sanguinalis; Digitaria sanguinalis, post-emergence, Atrazine 500 g/ha alone
  inhibition at 500 g/ha: 24%
Digitaria sanguinalis; Digitaria sanguinalis, post-emergence, Atrazine 1000 g/ha alone
  inhibition at 1000 g/ha: 32%
Eleusine indica; Atrazine alone
  ED₅₀: ED₅₀ (g/ha)664.61
Eleusine indica; Eleusine indica, post-emergence, Atrazine 125 g/ha alone
  inhibition at 125 g/ha: 4%
Eleusine indica; Eleusine indica, post-emergence, Atrazine 500 g/ha alone
  inhibition at 500 g/ha: 36%
Eleusine indica; Eleusine indica, post-emergence, Atrazine 1000 g/ha alone
  inhibition at 1000 g/ha: 66%
Sesbania exactata; Atrazine alone
  ED₉₀: ED₉₀(g/ha)76.91
Sesbania exactata; Sesbania, post-emergence, Atrazine 8 g/ha alone
  inhibition at 8 g/ha: 21%
Sesbania exactata; Sesbania, post-emergence, Atrazine 16 g/ha alone
  inhibition at 16 g/ha: 34%
Sesbania exactata; Sesbania, post-emergence, Atrazine 31 g/ha alone
  inhibition at 31 g/ha: 68%
Sesbania exactata; Sesbania, post-emergence, Atrazine 63 g/ha alone
  inhibition at 63 g/ha: 86%
Sesbania exactata; Sesbania, post-emergence, Atrazine 125 g/ha alone
  inhibition at 125 g/ha: 96%
Solanum nigrum; 1-2 leaves, Table 4
  ED₉₀: ED₉₀(g/ha) 121.27
  inhibition at 8 g/ha: 9%
  inhibition at 16 g/ha: 47%
  inhibition at 31 g/ha: 47%
  inhibition at 63 g/ha: 67%
  inhibition at 125 g/ha: 90%
Solanum nigrum; 1 leaf, Table 6
  ED₉₀: ED₉₀(g/ha) 59.35
  inhibition at 8 g/ha: 19%
  inhibition at 16 g/ha: 45%
  inhibition at 31 g/ha: 73%
  inhibition at 63 g/ha: 94%
  inhibition at 125 g/ha: 97%
Solanum nigrum; 2 leaves, Table 7
  ED₉₀: ED₉₀(g/ha) 72.94
  inhibition at 8 g/ha: 6%
  inhibition at 16 g/ha: 27%
  inhibition at 31 g/ha: 35%
  inhibition at 63 g/ha: 76%
  inhibition at 125 g/ha: 99%
Xanthium strumarium; Atrazine alone
  ED₉₀: ED₉₀(g/ha) 138.01
Xanthium strumarium; Xanthium strumarium, post-emergence, Atrazine 8 g/ha alone
  inhibition at 8 g/ha: 25%
Xanthium strumarium; Xanthium strumarium, post-emergence, Atrazine 16 g/ha alone
  inhibition at 16 g/ha: 21%
Xanthium strumarium; Xanthium strumarium, post-emergence, Atrazine 31 g/ha alone
  inhibition at 31 g/ha: 72%
Xanthium strumarium; Xanthium strumarium, post-emergence, Atrazine 63 g/ha alone
  inhibition at 63 g/ha: 59%
Xanthium strumarium; Xanthium strumarium, post-emergence, Atrazine 125 g/ha alone
  inhibition at 125 g/ha: 84%
Maize var.Irla; Atrazine alone
  ED₂₀: ED₂₀(g/ha) ∞
  crop phytotoxicity: no crop phytotoxicity
Maize var.Irla; Atrazine 250 g/ha
  % crop phytotoxicity Maize (3 leaves): 0%
Maize var.Irla; Atrazine 500 g/ha
  % crop phytotoxicity Maize (3 leaves): 0%
Maize var.Irla; Atrazine 1000 g/ha
  % crop phytotoxicity Maize (3 leaves): 0%
Maize var.Irla; Atrazine 2000 g/ha
  % crop phytotoxicity Maize (3 leaves): 0%

From patent publication EP0354047A2, “Herbicidal method using atrazine” (MAY & BAKER LIMITED, priority 1988, dated 1990)
